Residues, ends and D or L forms follow the SMILES beside them.
Target: T1, Acid-sensing ion channel 3 (Rattus norvegicus, UniProt O35240)
T1 sequence (O35240 whole entry): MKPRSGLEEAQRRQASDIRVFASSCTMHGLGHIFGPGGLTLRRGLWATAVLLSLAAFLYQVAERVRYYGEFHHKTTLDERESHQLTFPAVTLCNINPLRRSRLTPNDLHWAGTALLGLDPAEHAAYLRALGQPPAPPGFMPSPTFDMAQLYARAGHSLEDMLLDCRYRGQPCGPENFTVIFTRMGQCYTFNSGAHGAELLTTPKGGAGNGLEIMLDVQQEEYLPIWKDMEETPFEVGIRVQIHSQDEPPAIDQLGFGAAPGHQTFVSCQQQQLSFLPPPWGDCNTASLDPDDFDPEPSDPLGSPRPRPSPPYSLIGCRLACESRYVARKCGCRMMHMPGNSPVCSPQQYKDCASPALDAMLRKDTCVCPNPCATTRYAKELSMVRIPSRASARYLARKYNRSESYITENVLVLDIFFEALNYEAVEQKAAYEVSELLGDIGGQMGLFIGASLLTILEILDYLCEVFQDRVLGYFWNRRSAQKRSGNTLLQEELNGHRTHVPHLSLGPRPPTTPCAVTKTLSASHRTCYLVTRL
Assay: Modulation of rat ASIC3 expressed in Xenopus laevis oocytes at -70 mV holding potential by two-electrode voltage clamp method
Assay type: cell-based

## N=C(N)NCCC[C@H](NC(=O)[C@@H]1CCCN1C(=O)[C@@H](N)CCCNC(=N)N)C(=O)N[C@@H](Cc1ccccc1)C(=O)O (H-RPRF-OH)
  EC50: 3 µM
